According to patent publication US6676950B2, “Neurokinin receptor antagonists and methods of use thereof for inhibiting HIV infection” (The Children's Hospital of Philadelphia, priority 2001, dated 2004):

Experiments:
IL-6 = assay: LPS-stimulated IL-6 production in MDM by ELISA; format: cell-based, human; conditions: 10^−9 to 10^−7M; LPS 1 ng/ml; 24 h
Procedure: In order to determine the role of CP-96,345 in the regulation of cytokine secretion, 7-day-cultured MDM were incubated with or without CP-96,345 (10^−9 to 10^−7M) and/or LPS (1 ng/ml) for 24 h. The culture supernatants were collected to determine TNF-A and IL-6 levels by ELISA. The ELISA kits were purchased from Endogen, Inc. (Woburn, Mass.).

HIV Bal strain [1] = assay: HIV-induced syncytia formation in MDM; format: cell-based; conditions: 10^−7M; 12 days after infection; light microscope
Procedure: Syncytia formation: To study the effect of neuropeptide antagonists on HIV-induced syncytia formation in MDM, 7-day-cultured macrophages were incubated in the presence or absence of CP-96,345 (10^−7M) for 2 h and then infected with HIV Bal strain. MDM which were neither incubated with CP-96,345 nor infected with HIV were used as a cell culture control. The morphology of HIV-induced syncytia formation was observed and photographed by a light microscopy (X 400) 12 days after HIV infection.

HIV Bal strain [2] = assay: HIV gag mRNA in infected MDM by RT-PCR / real time RT-PCR; format: cell-based; conditions: 12 days after infection
Procedure: HIV Infection: After 2 h incubation with or without the reagents described above, the cells were infected with equal amounts of cell-free HIV based on p24 antigen content (20 ng/10^6 cells) overnight, and then washed to remove unbound virus. Fresh media containing SP and/or CP-96,345 or anti-SP antibody were added to the MDM as described above. The culture media and the reagents were replaced twice weekly. The culture supernatants were harvested for HIV reverse transcriptase (RT) activity determinations. After HIV infection, the MDM were incubated for 8 to 12 days. At the termination of the experiments, cellular RNA was extracted for assessment of HIV gag gene expression using RT-PCR or real time RT-PCR assays.
Total RNA was isolated from human peripheral blood MDM (10^6 cells) using Tri-Reagent (Molecular Research Center, Cincinnati, Ohio) as we previously reported (16).
Reverse transcription: Total RNA (1 μg) was reverse transcribed using Reverse Transcription System (Promega, Madison, Wis.) with the specific primers (antisense) for HIV gag (5′-[…]-[…]-3′; SEQ ID NO: 1) (27) or CCR5 (5′-[…]-3′; SEQ ID NO: 2) (32) for 1 h at 42° C. RT reactions was terminated by incubating the reaction mixture at 99° C. for 5 min and then kept at 4° C. The resulting cDNA was used as a template for PCR amplification or real time PCR quantification. […]

SP mRNA = SP mRNA expression in MDM by real-time RT-PCR; format: cell-based, human; conditions: 4 hours; percentage of untreated MDM
Procedure: FIG. 17. A graph showing the effect of CP-96,345 on SP mRNA expression in MDM. The MDM were incubated with (+) or without (−) the NK-1R antagonist at the indicated concentration for 4 hours. The SP mRNA levels were determined by a real-time RT-PCR. The SP mRNA levels in the CP-96,345 treated MDM are expressed as a percentage of that in untreated MDM which are defined as 100%.
The effect of CP-96,345 on SP mRNA expression in MDM was also determined. The MDM were incubated with (+) or without (−) the NK-1R antagonist at the indicated concentration for 4 hours. The SP mRNA levels were determined by a real-time RT-PCR.

COc1ccccc1CN[C@H]1C2CCN(CC2)[C@H]1C(c1ccccc1)c1ccccc1 [CP-96,345, [2S,3S)-cis-2-(diphenylmethyl)-N-[(2-methoxyphenyl)-methyl]-1-azabicyclo [[2.2.2]-octan-3-amine]] was tested, and the “IL-6 production in MDM” value (IL-6) was “not affected”, the “giant syncytia formation induced by HIV Bal strain infection” value (HIV Bal strain [1]) was “failed to develop the giant syncytia” and the “HIV gag mRNA expression (RT-PCR)” value (HIV Bal strain [2]; 10^−11 to 10^−7 M) was “potently inhibited”. For the same compound, the “HIV gag gene mRNA copy numbers (real time RT-PCR)” value (HIV Bal strain [2]; same samples) was “significantly suppress” and the “SP mRNA expression in MDM (real-time RT-PCR)” value (SP mRNA) was “significantly inhibited”.
